Measurements from US20160030416A1, “METHODS OF TREATING B2-BRADYKININ RECEPTOR MEDIATED ANGIOEDEMA” (SHIRE HUMAN GENETIC THERAPIES, INC., priority 2013, published 2016).

System: BK-induced human umbilical vein contractions
Assay: cells
Experimental: The inhibition effect of CFMQ on bradykinin induced […] was examined in an ex vivo functional assay of human umbilical vein contraction, which is considered a gold standard for bradykinin activity measurements. […] Firazyr®). Following a 30 minute incubation, BK-induced vein contractions were initiated in a cumulative manner (final concentration of 10 μM), followed by maximal calibration contraction induction by 10 μM serotonin. The tension increase for each dose response was calculated in relation to the (maximal) response towards serotonin, graphed as a dose-response curve and used to calculate an effective concentration at 50% (EC50) value (FIG. 6)

EC50: 2.5 nM
Compound: NC(N)=NCCC[C@@H](N)C(=O)N[C@@H](CCCN=C(N)N)C(=O)N1CCC[C@H]1C(=O)N1C[C@H](O)C[C@H]1C(=O)NCC(=O)N[C@@H](Cc1cccs1)C(=O)N[C@@H](CO)C(=O)N1Cc2ccccc2C[C@@H]1C(=O)N1[C@H](C(=O)N[C@@H](CCCN=C(N)N)C(=O)O)C[C@@H]2CCCC[C@@H]21 [Firazyr® (icatibant), icatibant, reference compound]
